Converted amounts (≈) assume the structure as drawn.
Tests used:
physchem [1] = conditions: water, thermodynamic from solid
Description: A saturated solution of ibuprofen in water was prepared at room temperature. […] An additional 20 mg of ibuprofen was added to 5 mL of the saturated solution. Then, 200 mg of iron oxide nanoparticles that had been functionalized with glycolic acid were added and mixed. Clear samples of solution were then taken from the slurry and analyzed with HPLC.

[2] = NaCl concentration change in water after crystallization with functionalized gold nanoparticles (digital density meter); assay type: physicochemical; conditions: 1.8 nm gold nanoparticles with ethanol group, seeded, 16 hour stirring
Excerpt: The antisolvent crystallization of NaCl is the best example of the influence of agglomeration on the final product purity. Though the crystals are crystallized from a mother liquor containing as much as 50% weight antisolvent (on a solvent basis), the uptake of the antisolvent is as low as 30 ppm. In the present study, functionalized nanoparticles were used to crystallize NaCl from a water solution. NaCl is highly soluble in water and slightly soluble in ethanol. In the case of NaCl crystallization, water was used as a solvent and ethanol was used as an antisolvent. NaCl was crystallized in water using 1.8 nm functionalized nanoparticles with an ethanol group at the open terminal. […] After 4 hours the sample was seeded with NaCl crystals and the sample was crystallized only after 16 hour of stirring. The initial and final concentration of NaCl was measured using the Digital Density Meter DMA4500. This instrument is used for accurate measurements of solvent density necessary for the concentration measurements. […] The change in concentration after crystallization measured using the digital density meter was 27 mg.

[3] = Solubility enhancement in water with glycolic acid functionalized iron oxide nanoparticles (HPLC); conditions: 2 ml suspension 20 g/L in water + 200 mg glycolic acid IONPs; part converted to 4-aminophenol
Description: The clear solution was analyzed using HPLC in order to determine the final concentration.

physchem [4] = conditions: water
Description: The method development involved the study of methanol and acetonitrile as organic modifiers, pH and flow-rate using a Chromolith RP-18e (150 mm×4.6 mm I.D.) column. After comparing the performance the optimum analysis of these compounds was achieved using 50 mM acetate buffer (pH 5.0)-acetonitrile (80:20, v/v) as mobile phase, 1 mL min-1 flow-rate and UV detection at maximum absorbance wavelength of 250 nm.

[5] = Solubility and metastable zone width of D-mannitol in water and water-ethanol mixtures (Crystal16); assay type: physicochemical; conditions: with an increase in the amount of ethanol (85-15, 75-25, 50-50% wt/wt water-ethanol)
Excerpt: According to the results of D-mannitol in water and water-ethanol mixtures, the solubility decreases with an increase in the amount of ethanol in water-ethanol mixtures. In order to know the required amount of functionalized nanoparticles and the operating region for crystallization, the MSZW of D-mannitol is important. For the samples of D-mannitol in the mixtures of 85-15 and 75-25% wt/wt of water-ethanol, the cloud point lies above the saturation temperature of D-mannitol in pure water. This means that, for the mixtures of 85-15 and 75-25% water-ethanol, and the solutes with a concentration of 193 mg/ml at 20° C., spontaneous nucleation will not occur because they will remain in solution. However, these experiments helped to determine the optimum operating supersaturation levels as well as the amount of antisolvent required to crystallize compounds at a given concentration. […]
The solubility and metastable zone width (MSZW) of D-mannitol was measured in pure DI water and DI water-ethanol mixtures at different concentrations by adding a known amount of D-mannitol and 1 mL of solvent or solvent mixtures respectively to a 1.5 mL glass vial. […] The temperature at which the suspension turned into a clear solution was recorded and assumed to be the saturation temperature. […] The temperatures at which the crystals are detected are assumed to be a cloud point. […]

CC(C)Cc1ccc(C(C)C(=O)O)cc1 (stereo not drawn) [ibuprofen]
solubility (physchem [1]): 0.009 mg/mL (≈ 0.0436 mM)

[Cl-].[Na+] [NaCl, Sodium chloride]
change in concentration after crystallization [2]: 27 mg

O=[N+]([O-])c1ccc(O)cc1 [4-nitrophenol]
concentration in clear solution after IONP addition [3]: 16500 µg/mL | solubility thermodynamic at 24 h (physchem [4]; 20 °C, thermodynamic from solid): 13 mg/mL (≈ 93.5 mM) | solubility at 24 h (physchem [4]; 25 °C): 13 mg/mL (≈ 93.5 mM)

OC[C@@H](O)[C@@H](O)[C@H](O)[C@H](O)CO [D-mannitol]
solubility of D-mannitol in water-ethanol mixtures [5]: decreases
